According to ChEMBL document CHEMBL5291721, “A preclinical secondary pharmacology resource illuminates target-adverse drug reaction associations of marketed drugs” (Nat Commun, 2023):

Key:
Adenosine receptor A1 = molecular target: T1, Adenosine receptor A1 (Homo sapiens, UniProt P30542)
T1 sequence (P30542 whole entry): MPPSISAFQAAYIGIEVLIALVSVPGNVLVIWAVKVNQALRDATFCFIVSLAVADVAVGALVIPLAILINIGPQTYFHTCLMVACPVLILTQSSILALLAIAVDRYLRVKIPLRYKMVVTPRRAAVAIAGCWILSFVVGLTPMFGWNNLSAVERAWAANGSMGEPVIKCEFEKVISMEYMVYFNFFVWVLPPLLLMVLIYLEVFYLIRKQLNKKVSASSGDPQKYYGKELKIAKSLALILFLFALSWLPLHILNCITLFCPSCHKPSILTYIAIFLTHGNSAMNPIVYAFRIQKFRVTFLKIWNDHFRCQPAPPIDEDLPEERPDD

D(1A) dopamine receptor = D(1A) dopamine receptor (Homo sapiens, UniProt P21728); type: functional, cell-based
[1] = molecular target: T2, Prostaglandin G/H synthase 1 (Rattus norvegicus, UniProt Q63921); type: functional
T2 sequence (Q63921 whole entry): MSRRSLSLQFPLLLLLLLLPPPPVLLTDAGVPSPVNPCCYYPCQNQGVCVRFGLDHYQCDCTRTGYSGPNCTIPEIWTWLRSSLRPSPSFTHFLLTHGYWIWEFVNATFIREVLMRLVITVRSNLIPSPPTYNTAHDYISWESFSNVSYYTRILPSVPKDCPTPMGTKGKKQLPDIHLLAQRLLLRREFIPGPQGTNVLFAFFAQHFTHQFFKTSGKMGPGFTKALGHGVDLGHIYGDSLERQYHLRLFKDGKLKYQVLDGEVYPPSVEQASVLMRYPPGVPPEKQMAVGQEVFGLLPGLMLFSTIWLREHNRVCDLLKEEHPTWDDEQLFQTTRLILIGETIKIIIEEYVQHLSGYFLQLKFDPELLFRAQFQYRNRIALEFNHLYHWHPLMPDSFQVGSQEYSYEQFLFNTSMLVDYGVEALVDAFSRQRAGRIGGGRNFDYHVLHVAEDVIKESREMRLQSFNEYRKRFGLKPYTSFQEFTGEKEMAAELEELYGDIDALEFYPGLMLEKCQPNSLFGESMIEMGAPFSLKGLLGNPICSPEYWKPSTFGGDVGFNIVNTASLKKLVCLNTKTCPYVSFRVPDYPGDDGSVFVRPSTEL

D(3) dopamine receptor = D(3) dopamine receptor (Homo sapiens, UniProt P35462)
[2] = molecular target: T3, Alpha-1A adrenergic receptor (Homo sapiens, UniProt P35348); type: functional, cell-based
T3 sequence (P35348 whole entry): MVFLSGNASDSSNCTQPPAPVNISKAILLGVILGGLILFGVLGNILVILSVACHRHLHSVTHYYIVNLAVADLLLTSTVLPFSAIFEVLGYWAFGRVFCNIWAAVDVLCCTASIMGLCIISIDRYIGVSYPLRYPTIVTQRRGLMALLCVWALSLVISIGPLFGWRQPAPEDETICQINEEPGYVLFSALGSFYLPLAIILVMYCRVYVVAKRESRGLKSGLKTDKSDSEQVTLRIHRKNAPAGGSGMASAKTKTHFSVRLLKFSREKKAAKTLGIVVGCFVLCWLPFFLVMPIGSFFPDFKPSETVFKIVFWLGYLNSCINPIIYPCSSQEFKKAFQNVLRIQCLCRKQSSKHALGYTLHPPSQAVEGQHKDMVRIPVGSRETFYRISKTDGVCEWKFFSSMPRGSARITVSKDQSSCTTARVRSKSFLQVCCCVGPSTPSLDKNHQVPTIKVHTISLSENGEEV

[3] = molecular target: Prostaglandin G/H synthase 1 (Homo sapiens, UniProt P23219); type: functional
Note: assay procedure not described here.

Sequence of D(3) dopamine receptor (P35462 whole entry): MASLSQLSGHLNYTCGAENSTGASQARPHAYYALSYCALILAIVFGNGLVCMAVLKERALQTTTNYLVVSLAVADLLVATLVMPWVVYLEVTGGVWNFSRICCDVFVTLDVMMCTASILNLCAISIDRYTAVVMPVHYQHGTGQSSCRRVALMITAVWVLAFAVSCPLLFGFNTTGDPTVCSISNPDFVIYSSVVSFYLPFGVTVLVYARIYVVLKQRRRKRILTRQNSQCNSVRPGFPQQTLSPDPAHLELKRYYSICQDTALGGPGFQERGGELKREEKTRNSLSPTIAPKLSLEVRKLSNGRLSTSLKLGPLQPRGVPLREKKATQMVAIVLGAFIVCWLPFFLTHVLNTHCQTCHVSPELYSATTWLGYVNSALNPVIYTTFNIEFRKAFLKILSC
Sequence of Prostaglandin G/H synthase 1 (Homo sapiens, UniProt P23219) (P23219 whole entry): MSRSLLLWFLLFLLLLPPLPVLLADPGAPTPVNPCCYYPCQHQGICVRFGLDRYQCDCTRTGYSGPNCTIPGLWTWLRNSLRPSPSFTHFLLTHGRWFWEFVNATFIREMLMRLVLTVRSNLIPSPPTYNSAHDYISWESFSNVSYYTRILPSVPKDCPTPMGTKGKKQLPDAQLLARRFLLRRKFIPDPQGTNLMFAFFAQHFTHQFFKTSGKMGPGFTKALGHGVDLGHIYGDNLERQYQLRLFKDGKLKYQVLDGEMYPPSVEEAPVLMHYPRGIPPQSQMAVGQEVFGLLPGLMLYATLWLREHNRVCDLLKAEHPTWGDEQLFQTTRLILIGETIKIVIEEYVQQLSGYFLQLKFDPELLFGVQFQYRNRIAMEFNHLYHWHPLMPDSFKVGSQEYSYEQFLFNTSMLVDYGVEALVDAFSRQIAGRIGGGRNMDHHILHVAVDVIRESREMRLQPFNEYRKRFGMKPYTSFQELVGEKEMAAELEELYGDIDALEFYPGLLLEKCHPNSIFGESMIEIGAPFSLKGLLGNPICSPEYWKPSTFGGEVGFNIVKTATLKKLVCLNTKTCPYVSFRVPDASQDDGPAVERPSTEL
Sequence of D(1A) dopamine receptor (P21728 whole entry): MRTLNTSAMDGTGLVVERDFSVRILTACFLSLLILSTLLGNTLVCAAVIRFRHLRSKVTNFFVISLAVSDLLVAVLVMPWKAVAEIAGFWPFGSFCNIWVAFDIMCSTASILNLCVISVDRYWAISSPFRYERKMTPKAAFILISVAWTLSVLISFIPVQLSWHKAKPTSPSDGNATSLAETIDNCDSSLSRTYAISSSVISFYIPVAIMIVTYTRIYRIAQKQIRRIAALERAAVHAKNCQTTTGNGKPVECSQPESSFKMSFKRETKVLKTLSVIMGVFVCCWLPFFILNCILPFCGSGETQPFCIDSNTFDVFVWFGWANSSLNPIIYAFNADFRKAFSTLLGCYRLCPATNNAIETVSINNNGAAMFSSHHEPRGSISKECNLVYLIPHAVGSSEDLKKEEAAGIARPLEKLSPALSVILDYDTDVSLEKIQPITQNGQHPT

In the case of `C[N+]1(C)CCC(=C(c2ccccc2)c2ccccc2)CC1`, the AC50 (Adenosine receptor A1) is reported as over 30 µM, the AC50 (D(1A) dopamine receptor) is reported as over 10 µM and the AC50 [1] is reported as over 10 µM. It also gave an AC50 (D(3) dopamine receptor) of over 30 µM.
Work on `C[N+](C)(C)CCOP(=O)([O-])OC[C@H](O)CO` yielded an AC50 (Adenosine receptor A1) of over 30 µM, an AC50 (D(1A) dopamine receptor) of over 30 µM and an AC50 [1] of over 30 µM. For the same molecule, the AC50 (D(3) dopamine receptor) was over 30 µM.
For `CN(C)Cc1nnc2n1-c1ccc(Cl)cc1C(c1ccccc1)=NC2` [ADINAZOLAM], the AC50 (Adenosine receptor A1) was over 10 µM, the AC50 (D(1A) dopamine receptor) was over 10 µM and the AC50 [1] was over 10 µM. For the same molecule, the AC50 (D(3) dopamine receptor) was over 30 µM.
With `CN(C)C/C=C/C(=O)Nc1cc2c(Nc3ccc(F)c(Cl)c3)ncnc2cc1O[C@H]1CCOC1` [AFATINIB] the AC50 (Adenosine receptor A1) was over 30 µM, the AC50 (D(1A) dopamine receptor) was over 30 µM and the AC50 [1] was over 30 µM. The AC50 (D(3) dopamine receptor) was over 30 µM.
With `Cc1ccccc1-n1c(CF)nc2ccc(N)cc2c1=O` [AFLOQUALONE] the AC50 (Adenosine receptor A1) was over 30 µM, the AC50 (D(1A) dopamine receptor) was over 30 µM and the AC50 [1] was 27.9 µM. The AC50 (D(3) dopamine receptor) was over 30 µM.
Molecule `CCC1(c2ccc(N)cc2)CCC(=O)NC1=O` (stereo unspecified) [AMINOGLUTETHIMIDE] has an AC50 (Adenosine receptor A1) of over 30 µM, an AC50 (D(1A) dopamine receptor) of over 30 µM and an AC50 [1] of over 30 µM. The AC50 (D(3) dopamine receptor) was over 30 µM.
For `CC1=C(C(=O)OC(C)C)C(c2cccc([N+](=O)[O-])c2)C(C(=O)OC2CN(C(c3ccccc3)c3ccccc3)C2)=C(N)N1` (stereo unspecified) [AZELNIDIPINE], the AC50 (Adenosine receptor A1) was over 30 µM, the AC50 (D(1A) dopamine receptor) was over 30 µM and the AC50 [1] was 16 µM. It also gave an AC50 (D(3) dopamine receptor) of over 30 µM.
`CC(Cc1cccc(C(F)(F)F)c1)NCCOC(=O)c1ccccc1` (stereo unspecified) [BENFLUOREX] showed an AC50 (Adenosine receptor A1) of over 30 µM, an AC50 (D(1A) dopamine receptor) of over 30 µM and an AC50 (D(3) dopamine receptor) of 2.63 µM.
`CCOC(=O)c1ccc(N)cc1` [BENZOCAINE] showed an AC50 (Adenosine receptor A1) of over 10 µM, an AC50 (D(1A) dopamine receptor) of over 10 µM and an AC50 [1] of over 10 µM. For the same molecule, the AC50 (D(3) dopamine receptor) was over 30 µM.
`CC(C)(Oc1ccc(CCNC(=O)c2ccc(Cl)cc2)cc1)C(=O)O` [BEZAFIBRATE] showed an AC50 (Adenosine receptor A1) of over 10 µM, an AC50 (D(1A) dopamine receptor) of over 10 µM and an AC50 [1] of over 10 µM. It also gave an AC50 (D(3) dopamine receptor) of over 30 µM.
Molecule `CC(O)(CS(=O)(=O)c1ccc(F)cc1)C(=O)Nc1ccc(C#N)c(C(F)(F)F)c1` (stereo unspecified) [BICALUTAMIDE] has an AC50 (Adenosine receptor A1) of over 30 µM, an AC50 [2] of over 3 µM and an AC50 (D(1A) dopamine receptor) of over 10 µM. The AC50 [1] was over 30 µM, the AC50 [3] was over 30 µM and the AC50 (D(3) dopamine receptor) was over 10 µM.
`O=C(O)COCCN1CCN(C(c2ccccc2)c2ccc(Cl)cc2)CC1` (stereo unspecified) [CETIRIZINE] showed an AC50 (Adenosine receptor A1) of over 30 µM and an AC50 [2] of over 30 µM.
`NC[C@H]1CC[C@H](C(=O)Oc2ccc(CCC(=O)O)cc2)CC1` [CETRAXATE] gave an AC50 (D(1A) dopamine receptor) of over 30 µM, an AC50 [3] of over 30 µM and an AC50 (D(3) dopamine receptor) of over 30 µM.
Work on `C=C1CC[C@H](O)C/C1=C/C=C1\CCC[C@]2(C)[C@@H]([C@H](C)CCCC(C)C)CC[C@@H]12` [CHOLECALCIFEROL] yielded an AC50 [2] of over 30 µM and an AC50 [3] of 12.3 µM.
`C[C@H](CCC(=O)O)[C@H]1CC[C@H]2[C@@H]3[C@H](O)C[C@@H]4C[C@H](O)CC[C@]4(C)[C@H]3C[C@H](O)[C@]12C` [CHOLIC ACID] was tested, and the AC50 [2] was over 30 µM.
With `CC(=O)O[C@]1(C(C)=O)CC[C@H]2[C@@H]3C=C(Cl)C4=CC(=O)[C@@H]5C[C@@H]5[C@]4(C)[C@H]3CC[C@@]21C` [CYPROTERONE ACETATE] the AC50 (Adenosine receptor A1) was over 30 µM, the AC50 [2] was over 3 µM and the AC50 [1] was over 30 µM. The AC50 [3] was over 30 µM and the AC50 (D(3) dopamine receptor) was over 30 µM.
Work on `C/C=C(/C(=C/C)c1ccc(O)cc1)c1ccc(O)cc1` [DIENESTROL] yielded an AC50 (Adenosine receptor A1) of over 30 µM, an AC50 (D(1A) dopamine receptor) of over 10 µM and an AC50 [1] of over 30 µM. It also gave an AC50 (D(3) dopamine receptor) of over 30 µM.
In the case of `CN[C@]1(c2ccccc2Cl)CCCCC1=O` [ESKETAMINE], the AC50 (Adenosine receptor A1) is reported as over 30 µM, the AC50 (D(1A) dopamine receptor) is reported as over 30 µM and the AC50 [1] is reported as over 30 µM. For the same molecule, the AC50 (D(3) dopamine receptor) was over 30 µM.
`CC(O)(P(=O)(O)O)P(=O)(O)O` [ETIDRONIC ACID] was tested, and the AC50 [2] was over 30 µM and the AC50 [3] was over 30 µM.
Work on `COc1ccc([C@@H]2CC(=O)c3c(O)cc(O)cc3O2)cc1O` [HESPERETIN] yielded an AC50 (Adenosine receptor A1) of over 10 µM, an AC50 (D(1A) dopamine receptor) of over 30 µM and an AC50 [1] of 30.7 µM. For the same molecule, the AC50 (D(3) dopamine receptor) was over 30 µM.
Work on `CNCCc1ccc(OC(=O)C(C)C)c(OC(=O)C(C)C)c1` [IBOPAMINE] yielded an AC50 (Adenosine receptor A1) of over 30 µM, an AC50 (D(1A) dopamine receptor) of 0.0442 µM and an AC50 [1] of over 30 µM. It also gave an AC50 (D(3) dopamine receptor) of 0.767 µM.
